Measurements from patent US20230286982A1, “PROTEASOME ENHANCERS AND USES THEREOF” (Board of Trustees of Michigan State University, priority 2020, published 2023).
“Also recorded” adds a separate entry of the source.

Experiments:
[1] = target: T1, human constitutive 20S proteasome (Homo sapiens, UniProt P25787+P25789); assay: Fluorogenic peptide degradation 20S proteasome activity assay; type: biochemical; settings: for 20S proteasome activity (in words): 0-80 μM; for AC200 (concentration achieving a doubling of 20S activity): combination of the three fluorogenic substrates (CT-L, T-L, Casp-L)
T1 construct: purchased Boston Biochem, Inc. (Cambridge, Mass.)
Method: Fluorogenic peptide degradation 20S proteasome activity assay. Activity assays were carried out in a 100 μL reaction volume. Different concentrations (1-80 μM) of test compounds were added to a black flat/clear bottom 96-well plate containing 1 nM of human constitutive 20S proteasome, in 50 mM Tris-HCl at pH 7.8, 100 mM NaCl and allowed to incubate for 15 min at 37° C. Fluorogenic substrates were then added and the enzymatic activity measured at 37° C. on a SpectraMax M5e spectrometer by measuring the change in fluorescence unit per minute for 1 hour at 380-460 nm. The fluorescence units for the vehicle control were set at a 100%, and the ratio of drug-treated sample set to that of vehicle control was used to calculate the fold change in enzymatic activity. The fluorogenic substrates used were one of the following: Suc-LLVY-AMC (CT-L activity, 20 μM), Z-LLE-AMC (Casp-L activity, 20 μM), Boc-LRR-AMC (T-L activity, 40 μM) or a combination of the three substrates each at 6.67 μM.

[2] = target: T2, human constitutive 20S proteasome impaired by α-synuclein oligomer mixture (Homo sapiens, UniProt P25787+P25789); assay: IDP oligomer inhibition in fluorogenic peptide degradation assay (α-synuclein oligomers); type: biochemical; settings: 1-10 μM, concentration dependent; CT-L substrate; 500 nM α-synuclein oligomers
T2 construct: purchased Boston Biochem, Inc. (Cambridge, Mass.)
Method: IDP oligomer Inhibition in fluorogenic peptide degradation assay. Assays were carried out in a 100 μL reaction volume. Different concentrations (1-10 μM) of test compounds were added to a black flat/clear bottom 96-well plate containing 1 nM of human constitutive 20S proteasome, in 50 mM Tris-HCl at pH 7.8 and allowed to incubate for 15 min at 37° C. Then, 1 μL of α-synuclein or amyloid beta oligomer mixture of was added to each sample to a final concentration of 500 nM for α-synuclein and 2.5 μM for amyloid beta. This mixture was then allowed to incubate again for 15 min at 37° C. Next, 10 μL of CT-L fluorogenic substrate was added to a final concentration of 20 μM. The enzymatic activity was measured at 37° C. on a SpectraMax M5e spectrometer by measuring the change in fluorescence unit per minute for 1 hour at 380-460 nm. The fluorescence units for the vehicle control were set at a 100%, and the ratio of drug-treated or just oligomer-treated samples to the vehicle control was used to calculate the relative enzymatic activity.

[3] = target: T3, human constitutive 20S proteasome impaired by amyloid beta oligomer mixture (Homo sapiens, UniProt P25787+P25789); assay: IDP oligomer inhibition in fluorogenic peptide degradation assay (amyloid beta oligomers); type: biochemical; settings: 1-10 μM, concentration dependent; CT-L substrate; 2.5 μM amyloid beta
T3 construct: purchased Boston Biochem, Inc. (Cambridge, Mass.)
Method: Amylold beta aggregate preparation. Synthetic amyloid beta was purchased from Eurogentec. To remove preexisting aggregates, synthetic amyloid beta peptide was dissolved in 100% hexafluoroisopropanol (HFIP) and incubated at 37° C. for 2 h. The HFIP was removed and the remaining peptide films were stored at −80° C. until use. Aggregates were prepared by resuspending amyloid beta films with DMSO (50 μL per 1 mg of peptide), followed by addition of ultrapure H2O (800 μL) and rapid addition of 2 M Tris-base (10 μL) at pH 7.6. The solution was then vortexed for 5 seconds and allowed to incubate at room temperature for 5 minutes. The Amyloid beta mixture was then diluted to the desired concentration and used immediately.
IDP oligomer Inhibition in fluorogenic peptide degradation assay. Assays were carried out in a 100 μL reaction volume. […] The enzymatic activity was measured at 37° C. on a SpectraMax M5e spectrometer by measuring the change in fluorescence unit per minute for 1 hour at 380-460 nm. The fluorescence units for the vehicle control were set at a 100%, and the ratio of drug-treated or just oligomer-treated samples to the vehicle control was used to calculate the relative enzymatic activity.

[4] = target: T4, purified human 20S proteasome (Homo sapiens, UniProt P25787+P25789); assay: In vitro purified α-synuclein oligomer degradation assay (western blot); type: biochemical; settings: 24 hours incubation with 20S proteasome
T4 construct: purchased Boston Biochem, Inc. (Cambridge, Mass.)
Method: In vitro purified α-synuclein oligomer degradation assay (western blot). Digestion of α-synuclein oligomer mixture was carried out in a 50 μL reaction volume made of 50 mM Tris at pH 7.8; 0.33 μM α-synuclein oligomer mixture and 6.7 nM purified human 20S proteasome. Briefly, 20S proteasome was diluted to 7.58 nM in the reaction buffer. Fluspirilene or vehicle (1 μL of 50×stock or DMSO) were added to 44 μL of 7.58 nM 20S and incubated at 37° C. for 20 min. The substrate (5 μL of 3.3 μM synuclein oligomer mixture) was then added to the reaction mixture and incubated at 37° C. for 24 hours. The reactions were then quenched with concentrated SDS loading buffer. Samples were resolved on a 4-20% Tris-glycine SDS-PAGE and immunoblotted with mouse monoclonal anti α-synuclein IgG (1:2000) and anti-mouse HRP-linked IgG (1:2000). Blots were developed with ECL western reagent and imaged with an Azure Biosystems 3000 imager.

[5] = system: A53T α-synuclein in transiently transfected HEK-293T cells; assay: A53T α-synuclein digestion in HEK-293T cells; type: cell-based, human; settings: for accumulation of A53T α-synuclein protein: 10 or 30 μM, 8 hours, with cycloheximide 100 μg/mL, concentration dependent
Method: Cell culture. Human embryonic kidney cells (HEK293T) were maintained in Dulbecco's modified Eagle's medium (DMEM) supplemented with 10% fetal bovine serum and 100 units/mL penicillin/streptomycin, at 37° C. with 5% CO2.
Transient transfection of A53T α-synuclein plasmid Into HEK-293T cells. Cells were grown according using the methods stated above to ˜50-70% confluency. At this point plasmid prepared with Xfect transfection agent (prepared following manufacturers protocol) was added to the HEK-293 cells and incubated for 4 hours. The media was then replaced with fresh culture media and the cells were returned to the incubator for 24 hours prior to treatment.
A53T α-synuclein digestion in HEK-293T cells. HEK-293T cells were transfected as described above and incubated for 24 hours. The cells were then treated with 100 μg/mL of cycloheximide, in combination with either vehicle (DMSO), fluspirilene (10 or 30 μM), N-acylated fluspirilene (10 or 30 μM), bortezomib (100 nM), or a combination thereof for 8 hours. The cells were then lysed using RIPA buffer and the manufacturers protocol. A BCA assay was performed to quantify protein levels and the lysates were normalized to desired concentrations prior to electrophoresis and western blot analysis, performed as described previously.

[6] = target: 26S proteasome (Homo sapiens, UniProt P25787+P25789); assay: Proteolysis of fluorogenic peptide substrates by purified 26S proteasome; type: biochemical; settings: 0-80 μM
Method: FIG. 1A is a plot showing the rate of proteolysis of fluorogenic peptide substrates by purified 20S and 26S proteasome in the presence of a concentration response (0-80 μM) of fluspirilene. […] Error bars denote standard deviation.
The small molecule antipsychotic drug fluspirilene was identified as a promising new scaffold for the development of 20S activators due to its strong enhancement of 20S proteolysis. To assess fluspirilene's 20S proteasome activity, a series of assays were performed using each of three fluorogenic peptide substrates. These substrates were a chymotryptic-like (CT-L), a trypsin-like (T-L) and a caspase-like (Casp-L) substrate, one for each of the catalytic sites of the proteasome. It has been shown that the proteasome's active sites allosterically regulate each other in the presence of their individual substrates. Therefore, a combination of the three probes to represent the overall activity of a 20S activator more accurately in a system in which all catalytic sites are interacting.

[7] = target: dopamine D2 receptor (Homo sapiens, UniProt P14416); settings: cited from earlier work
dopamine D2 receptor, sequence (P14416 whole entry, species assumed): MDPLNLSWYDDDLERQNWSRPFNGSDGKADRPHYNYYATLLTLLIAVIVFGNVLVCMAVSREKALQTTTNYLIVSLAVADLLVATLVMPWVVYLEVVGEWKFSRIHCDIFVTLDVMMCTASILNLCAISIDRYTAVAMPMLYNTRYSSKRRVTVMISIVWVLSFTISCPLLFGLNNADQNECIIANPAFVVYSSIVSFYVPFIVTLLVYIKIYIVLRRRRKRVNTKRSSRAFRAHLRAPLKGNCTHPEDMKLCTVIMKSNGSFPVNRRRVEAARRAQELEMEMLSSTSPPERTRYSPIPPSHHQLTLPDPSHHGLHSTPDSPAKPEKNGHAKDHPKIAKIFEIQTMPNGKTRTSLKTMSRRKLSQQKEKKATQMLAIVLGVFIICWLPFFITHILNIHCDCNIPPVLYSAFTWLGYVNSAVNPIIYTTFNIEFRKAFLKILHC

[8] = combination of the three catalytic site substrates

SMILES: O=C1NCN(c2ccccc2)C12CCN(CCC=C(c1ccc(F)cc1)c1ccc(F)cc1)CC2 [Compound 11]
- 20S proteasome activity (in words) [1, 8]: lessened activity; also recorded: moderate activity

SMILES: O=C(CCC(c1ccc(F)cc1)c1ccc(F)cc1)N1CCC2(CC1)C(=O)NCN2c1ccccc1 [Compound 16]
- maximum fold enhancement [1, 8]: > 2000%
- 20S proteasome activity (in words) [1, 8]: promising; also recorded: excellent activity
- AC200 (concentration achieving a doubling of 20S activity) [1]: 1.9 µM
- max fold increases, increase over vehicle ([1]; for each substrate/combination): > 1500%
- activation of the CT-L site relative to fluspirilene ([1]; individual CT-L fluorescent peptide probe): reduced activation
- AC200 at the CT-L site ([1]; individual CT-L substrate (Suc-LLVY-AMC)): 4.7 µM
- AC200 at the Casp-L site ([1]; individual Casp-L substrate (Z-LLE-AMC)): 4.1 µM
- activation of the T-L site relative to fluspirilene ([1]; individual T-L fluorescent peptide probe): better activation
- prevention of 20S impairment by α-syn oligomers [2]: prevented 20S impairment
- prevention of 20S impairment by amyloid beta oligomers [3]: prevented 20S impairment
- remaining α-syn oligomers relative to vehicle control [4]: reduction in overall α-syn oligomers
- accumulation of A53T α-synuclein protein [5]: effectively reduced the accumulation
- effect on A53T α-synuclein when proteasome activity is blocked ([5]; in combination with bortezomib (100 nM)): abrogated

SMILES: O=C1NCN(c2ccccc2)C12CCN(CCCC(c1ccc(F)cc1)c1ccc(F)cc1)CC2 [Fluspirilene, fluspirilene, reference compound]
- activation of the catalytic sites of the 20S proteasome ([1]; CT-L, T-L and Casp-L substrates): activates all three catalytic sites
- maximum fold enhancement ([1]; combination of probes, over vehicle control): ~10 fold
- 20S proteasome activity (in words) [1, 8]: promising
- AC200 (concentration achieving a doubling of 20S activity) [1]: 2.2 µM
- enhancement of the proteolytic activity of the 26S proteasome [6]: did not enhance
- prevention of 20S impairment by α-syn oligomers [2]: prevented 20S impairment
- prevention of 20S impairment by amyloid beta oligomers [3]: prevented 20S impairment
- remaining α-syn oligomers relative to vehicle control [4]: reduction in overall α-syn oligomers
- accumulation of A53T α-synuclein protein [5]: effectively reduced the accumulation
- dopamine D2 receptor antagonism [7]: potent
